The text below walks through data of ChEMBL document CHEMBL6114969, “Ultra-short lipopeptides containing d-amino acid exhibiting excellent stability and antibacterial activity against gram-positive bacteria” (Eur J Med Chem, 2025).

Converted amounts (≈) assume the structure as drawn. The source made the active and inactive calls. No cut-off for these calls is given here. Where a SMILES comes first, the peptide text is derived from it. Bridges are numbered along the chain shown (N, C = ends). [ ]: non-standard residue; d: D form. The star is where a group is joined. X1 = CC[C@H](C)CCCCC(=O)*; dDab = NCC[C@@H](N)C(=O)O; Dab = NCC[C@H](N)C(=O)O

What is called MIC is the lowest concentration that inhibits growth of the organism.

Assay [1] concerns Staphylococcus epidermidis. Put plainly: Antibacterial activity against Staphylococcus epidermidis ATCC 12228 incubated for 18 to 24 hrs by broth microdilution method. It counts as functional. The note with it: time 18-24 hrs. (Broth dilution looks for growth in wells or tubes with falling amounts of substance.)
For another assay, the system named is Enterococcus faecalis. Briefly: Antibacterial activity against Enterococcus faecalis ATCC 29212 incubated for 18 to 24 hrs by broth microdilution method. Type of assay: functional. The note with it: time 18-24 hrs.
Assay [2] concerns Staphylococcus aureus. Briefly: Induction of drug resistance in Staphylococcus aureus ATCC 25923 at sub-MIC measured after 2 passages. It counts as functional, organism-based.
Assay [3] deals with Staphylococcus aureus. Put plainly: Antibacterial activity against methicillin-resistant Staphylococcus aureus ATCC 33591 incubated for 18 to 24 hrs by broth microdilution method. It counts as functional. The note with it: time 18-24 hrs.
Assay [4] relates to Staphylococcus aureus. Briefly: Induction of drug resistance in methicillin-resistant Staphylococcus aureus ATCC 33591 assessed as fold increase in MIC at sub-MIC measured after 14 passages relative to control. Type of assay: functional.
Assay [5] has as its system Staphylococcus aureus. Briefly: Induction of drug resistance in Staphylococcus aureus ATCC 25923 assessed as fold increase in MIC at sub-MIC measured after 10 passages relative to control. It counts as functional.
Assay [6] concerns Staphylococcus aureus. Briefly: Antibacterial activity against Staphylococcus aureus ATCC 25923 incubated for 18 to 24 hrs by broth microdilution method. It counts as functional. The note with it: time 18-24 hrs.
Assay [7] concerns Staphylococcus aureus. Put plainly: Antibacterial activity against Staphylococcus aureus ATCC 29213 incubated for 18 to 24 hrs by broth microdilution method. Type of assay: functional. The note with it: time 18-24 hrs.
Assay [8] relates to Staphylococcus aureus. Put plainly: Antibacterial activity against methicillin-resistant Staphylococcus aureus ATCC 33591 infected in Balb/c mouse model of skin wound infection assessed as reduction in TNF-alpha activity in skin at 10 mg/kg, ip administered thrice at 1, 24 and 48 hrs post-infection measured after 14 days by IHC analysis. It counts as functional, organism-based. Particulars: time 14.0 day.

Assay [9] concerns Staphylococcus aureus. Put plainly: Antibacterial activity against methicillin-resistant Staphylococcus aureus ATCC 33591 infected in Balb/c mouse model of skin wound infection assessed as reduction in bacterial load in skin at 10 mg/kg, ip administered thrice at 1, 24 and 48 hrs post-infection measured after 72 hrs post-infection. Particulars: time 71.0 hrs. Type of assay: functional, organism-based.

Assay [10] concerns Staphylococcus aureus. Briefly: Antibacterial activity against methicillin-resistant Staphylococcus aureus ATCC 33591 infected in Balb/c mouse model of skin wound infection assessed as reduction in IL-1beta activity in skin at 10 mg/kg, ip administered thrice at 1, 24 and 48 hrs post-infection measured after 14 days by IHC analysis. It counts as functional, organism-based. Particulars: time 14.0 day.

Assay [11] has as its system Staphylococcus aureus. Briefly: Antibacterial activity against methicillin-resistant Staphylococcus aureus ATCC 33591 infected in Balb/c mouse model of pneumonia infection assessed as reduction in bacterial load in lung at 10 mg/kg, ip administered thrice at 4, 8 and 12 hrs post-infection measured after 24 hrs post-infection. Type of assay: functional, organism-based. Particulars: time 20.0 hrs.

Assay [12] has as its system Staphylococcus aureus. Put plainly: Antibacterial activity against methicillin-resistant Staphylococcus aureus ATCC 33591 infected in Balb/c mouse model of pneumonia infection assessed as reduction in IL-1beta activity in lung at 10 mg/kg, ip administered thrice at 4, 8 and 12 hrs post-infection measured after 24 hrs post-infection by IHC analysis. It counts as functional, organism-based. Particulars: time 20.0 hrs.

Assay [13] has as its system Staphylococcus aureus. Briefly: Antibacterial activity against methicillin-resistant Staphylococcus aureus ATCC 33591 infected in Balb/c mouse model of pneumonia infection assessed as reduction in TNF-alpha activity in lung at 10 mg/kg, ip administered thrice at 4, 8 and 12 hrs post-infection measured after 24 hrs post-infection by IHC analysis. Particulars: time 20.0 hrs. Type of assay: functional, organism-based.

Assay [14] deals with Staphylococcus aureus. Briefly: Antibacterial activity against methicillin-resistant Staphylococcus aureus ATCC 33591 infected in Balb/c mouse model of skin wound infection assessed as reduction in inflammatory cell infiltration in skin at 10 mg/kg, ip administered thrice at 1, 24 and 48 hrs post-infection measured after 14 days by H and E staining based analysis. It counts as functional, organism-based. The note with it: time 14.0 day.

For assay [15], the system named is Staphylococcus aureus. Put plainly: Antibacterial activity against methicillin-resistant Staphylococcus aureus ATCC 33591 infected in Balb/c mouse model of pneumonia infection assessed as reduction in inflammatory cell infiltration in lung at 10 mg/kg, ip administered thrice at 4, 8 and 12 hrs post-infection measured after 24 hrs post-infection by H and E staining based analysis. It counts as functional, organism-based. Particulars: time 20.0 hrs.

In assay [16] the test system is Staphylococcus aureus. Put plainly: Antibacterial activity against methicillin-resistant Staphylococcus aureus ATCC 33591 infected in Balb/c mouse model of pneumonia infection assessed as reduction in bleeding in lung at 10 mg/kg, ip administered thrice at 4, 8 and 12 hrs post-infection measured after 24 hrs post-infection by H and E staining based analysis. Particulars: time 20.0 hrs. It counts as functional, organism-based.

Assay [17] concerns Staphylococcus aureus. Put plainly: Antibacterial activity against methicillin-resistant Staphylococcus aureus ATCC 33591 infected in Balb/c mouse model of acute systemic infection at 10 mg/kg, ip measured after 5 days. It counts as functional, organism-based. Particulars: time 5.0 day.
For assay [18], the system named is Staphylococcus aureus. Briefly: Antibacterial activity against methicillin-resistant Staphylococcus aureus ATCC 33591 infected in Balb/c mouse model of pneumonia infection assessed as reduction in alveolar contraction in lung at 10 mg/kg, ip administered thrice at 4, 8 and 12 hrs post-infection measured after 24 hrs post-infection by H and E staining based analysis. Type of assay: functional, organism-based.

Assay [19] concerns Staphylococcus aureus. Briefly: Antibacterial activity against methicillin-resistant Staphylococcus aureus ATCC 33591 infected in Balb/c mouse model of skin wound infection assessed as reduction in keratosis in wound surface at 10 mg/kg, ip administered thrice at 1, 24 and 48 hrs post-infection measured after 14 days by IHC analysis. The note with it: time 14.0 day. It counts as functional, organism-based.

Take `C[C@@H](O)[C@H]1C(=O)N2C(C(=O)O)=C(SCCNC=N)C[C@H]12` [IMIPENEM ANHYDROUS]: the minimal inhibitory concentration (MIC) was found to be 4 µM (≈ 1.2 µg/mL) in assay [1]; 2 µM (≈ 0.599 µg/mL) against Enterococcus faecalis; 32 µM (≈ 9.58 µg/mL) against Staphylococcus aureus [3]; 4 µM (≈ 1.2 µg/mL) in the assay with Staphylococcus aureus [6]; 2 µM (≈ 0.599 µg/mL) against Staphylococcus aureus [7]. Also, the outcome in the assay on Staphylococcus aureus [2] was Active. Moreover, the “fold change (FC)” value with Staphylococcus aureus [4] stood at 64; in the assay on Staphylococcus aureus [5] it was 2048.

Consider `CC(C)CCCCC(=O)N[C@@H](CCN)C(=O)N[C@H](C(=O)N[C@@H](CCN)C(=O)N[C@H]1CCNC(=O)[C@H]([C@@H](C)O)NC(=O)[C@H](CCN)NC(=O)[C@H](CCN)NC(=O)[C@H](CC(C)C)NC(=O)[C@@H](Cc2ccccc2)NC(=O)[C@@H](CCN)NC1=O)[C@@H](C)O.CC[C@H](C)CCCCC(=O)N[C@@H](CCN)C(=O)N[C@H](C(=O)N[C@@H](CCN)C(=O)N[C@H]1CCNC(=O)[C@H]([C@@H](C)O)NC(=O)[C@H](CCN)NC(=O)[C@H](CCN)NC(=O)[C@H](CC(C)C)NC(=O)[C@@H](Cc2ccccc2)NC(=O)[C@@H](CCN)NC1=O)[C@@H](C)O` (X1-[Dab]T[Dab][Dab][dDab][dF]L[Dab][Dab]T; lactam 4-C), for which the result in the assay on Staphylococcus aureus [8], in the assay with Staphylococcus aureus [9], in the assay on Staphylococcus aureus [10], with Staphylococcus aureus [11], in the assay on Staphylococcus aureus [12] and in the assay with Staphylococcus aureus [13] was Active. Besides, the result in the assay with Staphylococcus aureus [14], with Staphylococcus aureus [15], with Staphylococcus aureus [16], with Staphylococcus aureus [17] and in the assay with Staphylococcus aureus [19] was Active. Further, the outcome with Staphylococcus aureus [18] was inactive.
